Here are results for three molecules from patent US20250235148A1, “IBS RELATED TESTING AND TREATMENT” (IBS-80, LLC, priority 2021, published 2025).

The test system of data set [1] is skin of each patient. Briefly: skin patch testing with the first 28 common test materials (Example 2). The following applies: of 15 symptomatic patients (IBS or IBS-like symptoms).
In data set [2] the test system is skin of each patient. The settings on record: human, in vivo, 48 h.

Read-outs that look alike come from different tables or passages of the source.

Take `C=C(C)[C@H]1CC=C(C)CC1` [dipentene]: the “patients with a positive patch test” value in data set [1] was determined as 1. Regarding `CCCCCCCCCCCCOC(=O)c1cc(O)c(O)c(O)c1` [dodecyl gallate], in data set [2], the “patients with a positive patch test” value was 1. As for `O=C(OOC(=O)c1ccccc1)c1ccccc1` [benzoyl peroxide], in data set [1], the “patients with a positive patch test” value stood at 1.
